The results in this text go back to patent publication US11766407B2, “Polymerized whey protein encapsulated antioxidant compound and a process for preparation of same” (FoodScience Corporation, priority 2020, dated 2023).

One data set in a line: in vivo. As to conditions: male, ICR, mouse, po. The method, then:
ICR mice, male, SPF, 3 weeks, weighing from 18 to 22 g were provided by Beijing HFK Bioscience Co., Ltd (Beijing, China).
All mice were housed in plastic lab animal cages in a ventilated room. The room was maintained at 20±2° C. and 60±10% relative humidity with a 12 h light/dark cycle. Water and commercial laboratory complete food for mice were available ad libitum. They were acclimated to this environment for 7 days before treatment. All animal experiments were approved by the Animal Welfare and Research Ethics Committee at Jilin University (Approval ID: SY201905018).
Blood collection. Before blood collection, 30 μL heparin solution was added to 1.5 mL centrifugal tubes and vortexed. The blood samples (about 0.5 mL) was collected by removing one eye of the mice. The blood was centrifuged at 6000 rpm at room temperature for 2 min. The upper plasma was transferred to a new centrifugal tube.
Pharmacokinetic parameters were calculated using a mouse model.

Data set [1] is described as follows: Physicochemical characterization of PWPC-GSH (particle size, zeta potential, rheology, TEM). As to conditions: GSH alone.

For the compound `N[C@@H](CCC(=O)N[C@@H](CS)C(=O)NCC(=O)O)C(=O)O` [GSH, Glutathione], in the data set “in vivo”, the AUC – broadly, the area under the concentration-time curve, a measure of exposure – was 19200 ng·h/mL; the peak level (Cmax) was 7370 ng/mL; the Tmax (commonly the time at which the peak concentration occurs) was determined as 2 h. Moreover, in data set [1], the particle size is reported as 287.83±6.18 nm.
